From patent publication US7189680B2, “5-halo-6-aryl[1,2,4]triazolo[1,5-a]pyrimidin-7-amines” (Bayer Cropscience AG, priority 2001, dated 2007)

Tests used:
[1] = system: Venturia inaequalis; assay: Venturia test (apple)/protective; assay type: in vivo; conditions: protective, 100 g/ha, evaluation 10 days following inoculation
Experimental: (§1) To produce a suitable preparation of active compound, one part by weight of active compound is mixed with the stated amounts of solvent and emulsifier, and the concentrate is diluted with water to the desired concentration.
To test for protective activity, young plants are sprayed with the active compound preparation at the application rate indicated. After the spray coating has dried on, the plants are inoculated with an aqueous conidia suspension of the apple scab causative organism, Venturia inaequalis, and then remain in an incubation cabin for 1 day at about 20° C. and 100% relative humidity.
The plants are placed in a greenhouse at a temperature of about 15° C. and a relative humidity of about 90%.
Evaluation is made 10 days following inoculation. 0% denotes an efficacy corresponding to that of the control, whereas an efficacy of 100% means that no infestation is observed.

[2] = system: Fusarium nivale (var. majus); assay: Fusarium nivale (var. majus) test (wheat)/protective; assay type: in vivo; conditions: protective, 500 g/ha, evaluation 4 days following inoculation
Experimental: as §1
To test for protective activity, young plants are sprayed with the active compound preparation at the application rate indicated. After the spray coating has dried on, the plants are sprayed with a conidia suspension of Fusarium nivale (var. majus).
The plants are placed in a greenhouse under transparent incubation hoods at a temperature of about 15° C. and a relative humidity of about 100%.
Evaluation is made 4 days following inoculation. 0% denotes an efficacy corresponding to that of the control, whereas an efficacy of 100% means that no infestation is observed.

CN(C)Nc1c(-c2c(F)cc(F)cc2F)c(Cl)nc2ncnn12 [drawing 46]
Efficacy in % [1]: 94%

CCCN(N)c1c(-c2c(F)cc(F)cc2F)c(Cl)nc2ncnn12 [drawing 43]
Efficacy in % [2]: 80%

CCN(N)c1c(-c2c(F)cc(F)cc2F)c(Cl)nc2ncnn12 [drawing 44]
Efficacy in % [2]: 80%

CNN(C)c1c(-c2c(F)cc(F)cc2F)c(Cl)nc2ncnn12 [drawing 45]
Efficacy in % [2]: 93%

CN(C)Nc1c(-c2c(F)cc(F)cc2F)c(Cl)nc2ncnn12 [Example 1, 5-chloro-7-(2,2-dimethylhydrazino)-6-(2,4,6-trifluorophenyl)[1,2,4]-triazolo[1,5-a]pyrimidine]
melting point: 165 to 168 °C
